Data as given in article PMC3193053 (Analytical chemistry, 2011).

Each compound was assayed on VHH T9 (assay: Cross-reactivity of the TCC competitive ELISA set up with VHH T9). Settings: CR% = IC50 (TCC) ÷ IC50 (cross-reacting compound) × 100.
Assay type: binding, Lama glama

Compound	CR (%)
O=C(Nc1ccc(Cl)cc1)Nc1ccc(Cl)c(Cl)c1 [TCC, 3,4,4′-trichlorocarbanilide]	100
Dinuron	<0.1
O=C(Nc1ccc(Cl)c(Cl)c1)Nc1ccc(Cl)c(Cl)c1 [3,3′,4,4′-Tetrachloro-carbanilide]	2.46
CC(=O)N1CCC(NC(=O)Nc2ccc(OC(F)(F)F)cc2)CC1 [sEHi, #1555]	<0.1
O=C(Nc1ccc(Cl)c(Cl)c1)Nc1ccc(Cl)cc1OS(=O)(=O)O [Sulfate of 2′-OH TCC]	<0.1
O=C(Nc1ccc(Cl)cc1)Nc1ccc(Cl)c(C(F)(F)F)c1 [3-Trifluoromethyl-4,4′-dichlorocarbanilide]	6.97
O=C(Nc1ccc(Cl)c(Cl)c1)Nc1ccc(Cl)cc1O [2′-OH TCC]	16.9
O=C(Nc1ccccc1)Nc1ccccc1 [Carbanilide]	1.78
O=C(Nc1ccc(Cl)cc1)Nc1ccc(Cl)cc1 [4,4′-Dichlorocarbanilide]	13.3
Oc1cc(Cl)ccc1Oc1ccc(Cl)cc1Cl [Triclosan]	<0.1
CS(=O)(=O)N1CCC(NC(=O)Nc2ccc(OC(F)(F)F)cc2)CC1 [sEHi, #1709]	<0.1
